Test results reported in PubChem BioAssay (NCI).
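Tested at 5 concentrations; 48 h exposure; 96-well plates; endpoints linearly interpolated, else capped at highest concentration. GI50 marks 50% less growth. At the TGI there is no net growth.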

How the values were obtained:
Assay in all cases: NCI anticancer screen, dose series, 48 h
M14 melanoma = test system: M14 melanoma
ACHN renal = test system: ACHN renal
NCI-H522 lung = test system: NCI-H522 lung
RPMI-8226 leukemia = test system: RPMI-8226 leukemia
SK-MEL-28 melanoma = test system: SK-MEL-28 melanoma
NCI/ADR-RES ovarian = test system: NCI/ADR-RES ovarian
OVCAR-3 ovarian = test system: OVCAR-3 ovarian
SF-295 CNS = test system: SF-295 CNS
MDA-MB-435 = test system: MDA-MB-435
NCI-H23 lung = test system: NCI-H23 lung
COLO 205 colon = test system: COLO 205 colon
DU-145 prostate = test system: DU-145 prostate
HCT-116 colon = test system: HCT-116 colon
HT29 colon = test system: HT29 colon
RXF 393 renal = test system: RXF 393 renal
LOX IMVI melanoma = test system: LOX IMVI melanoma
CAKI-1 renal = test system: CAKI-1 renal
HS 578T breast = test system: HS 578T breast
BT-549 breast = test system: BT-549 breast
NCI-H226 lung = test system: NCI-H226 lung
A498 renal = test system: A498 renal
HOP-62 NSCLC = test system: HOP-62 NSCLC
SK-OV-3 ovarian = test system: SK-OV-3 ovarian
PC-3 prostate = test system: PC-3 prostate
UACC-257 melanoma = test system: UACC-257 melanoma
MOLT-4 leukemia = test system: MOLT-4 leukemia
SF-539 CNS = test system: SF-539 CNS
HCT-15 colon = test system: HCT-15 colon
SN12C renal = test system: SN12C renal
A549 NSCLC = test system: A549 NSCLC
SK-MEL-2 melanoma = test system: SK-MEL-2 melanoma
OVCAR-4 ovarian = test system: OVCAR-4 ovarian
HCC-2998 colon = test system: HCC-2998 colon
KM12 colon = test system: KM12 colon
UO-31 renal = test system: UO-31 renal
OVCAR-5 ovarian = test system: OVCAR-5 ovarian
HL-60(TB) leukemia = test system: HL-60(TB) leukemia
786-0 renal = test system: 786-0 renal
CCRF-CEM leukemia = test system: CCRF-CEM leukemia
HOP-92 NSCLC = test system: HOP-92 NSCLC
SK-MEL-5 melanoma = test system: SK-MEL-5 melanoma
MALME-3M melanoma = test system: MALME-3M melanoma
SR leukemia = test system: SR leukemia
OVCAR-8 ovarian = test system: OVCAR-8 ovarian
EKVX NSCLC = test system: EKVX NSCLC
SW-620 colon = test system: SW-620 colon
NCI-H460 lung = test system: NCI-H460 lung
K-562 leukemia = test system: K-562 leukemia
SF-268 CNS = test system: SF-268 CNS
SNB-19 CNS = test system: SNB-19 CNS
SNB-75 CNS = test system: SNB-75 CNS
MDA-MB-231 breast = test system: MDA-MB-231 breast
U251 CNS = test system: U251 CNS
UACC-62 melanoma = test system: UACC-62 melanoma
IGROV1 ovarian = test system: IGROV1 ovarian
TK-10 renal = test system: TK-10 renal

Compound `COc1ccc2[nH]c(C(=O)N3CCN(C(=O)OCc4ccc5c(Cl)cc(Cl)c(O)c5n4)CC3)cc2c1` has a GI50 (M14 melanoma) of 1150 nM, a TGI (M14 melanoma) of 2600 nM and a GI50 (ACHN renal) of 592 nM. The TGI (ACHN renal) was 1870 nM, the GI50 (NCI-H522 lung) was 828 nM and the TGI (NCI-H522 lung) was 2350 nM. The GI50 (RPMI-8226 leukemia) was 281 nM, the TGI (RPMI-8226 leukemia) was 962 nM and the GI50 (SK-MEL-28 melanoma) was 1580 nM. It also gave a TGI (SK-MEL-28 melanoma) of 2940 nM, a GI50 (NCI/ADR-RES ovarian) of 1830 nM and a TGI (NCI/ADR-RES ovarian) of 6370 nM. The GI50 (OVCAR-3 ovarian) was 504 nM, the TGI (OVCAR-3 ovarian) was 1830 nM and the GI50 (SF-295 CNS) was 3910 nM. It also gave a TGI (SF-295 CNS) of 13800 nM, a GI50 (MDA-MB-435) of 1200 nM and a TGI (MDA-MB-435) of 2720 nM. It also gave a GI50 (NCI-H23 lung) of 1700 nM, a TGI (NCI-H23 lung) of 3470 nM and a GI50 (COLO 205 colon) of 850 nM. For the same compound, the TGI (COLO 205 colon) was 2480 nM, the GI50 (DU-145 prostate) was 1190 nM and the TGI (DU-145 prostate) was 2530 nM. The GI50 (HCT-116 colon) was 295 nM, the TGI (HCT-116 colon) was 1350 nM and the GI50 (HT29 colon) was 1080 nM. For the same compound, the TGI (HT29 colon) was 2480 nM, the GI50 (RXF 393 renal) was 557 nM and the TGI (RXF 393 renal) was 1810 nM. It also gave a GI50 (LOX IMVI melanoma) of 1430 nM, a TGI (LOX IMVI melanoma) of 2810 nM and a GI50 (CAKI-1 renal) of 357 nM. The TGI (CAKI-1 renal) was 1650 nM, the GI50 (HS 578T breast) was 1870 nM and the TGI (HS 578T breast) was 6070 nM. The GI50 (BT-549 breast) was 1040 nM, the TGI (BT-549 breast) was 2340 nM and the GI50 (NCI-H226 lung) was 1180 nM. It also gave a TGI (NCI-H226 lung) of 2560 nM, a GI50 (A498 renal) of 1590 nM and a TGI (A498 renal) of 2990 nM. It also gave a GI50 (HOP-62 NSCLC) of 1560 nM, a TGI (HOP-62 NSCLC) of 3360 nM and a GI50 (SK-OV-3 ovarian) of 5360 nM. It also gave a TGI (SK-OV-3 ovarian) of 17600 nM, a GI50 (PC-3 prostate) of 1060 nM and a TGI (PC-3 prostate) of 2670 nM. It also gave a GI50 (UACC-257 melanoma) of 1410 nM, a TGI (UACC-257 melanoma) of 2800 nM and a GI50 (MOLT-4 leukemia) of 356 nM. The TGI (MOLT-4 leukemia) was 1790 nM, the GI50 (SF-539 CNS) was 1310 nM and the TGI (SF-539 CNS) was 2580 nM. The GI50 (HCT-15 colon) was 368 nM, the TGI (HCT-15 colon) was 1590 nM and the GI50 (SN12C renal) was 1270 nM. It also gave a TGI (SN12C renal) of 2560 nM, a GI50 (A549 NSCLC) of 1550 nM and a TGI (A549 NSCLC) of 3390 nM. It also gave a GI50 (SK-MEL-2 melanoma) of 1610 nM, a TGI (SK-MEL-2 melanoma) of 3060 nM and a GI50 (OVCAR-4 ovarian) of 1530 nM. For the same compound, the TGI (OVCAR-4 ovarian) was 3070 nM, the GI50 (HCC-2998 colon) was 1700 nM and the TGI (HCC-2998 colon) was 3320 nM. It also gave a GI50 (KM12 colon) of 1690 nM, a TGI (KM12 colon) of 3680 nM and a GI50 (UO-31 renal) of 1010 nM. It also gave a TGI (UO-31 renal) of 2170 nM, a GI50 (OVCAR-5 ovarian) of 1610 nM and a TGI (OVCAR-5 ovarian) of 3080 nM. It also gave a GI50 (HL-60(TB) leukemia) of 977 nM, a TGI (HL-60(TB) leukemia) of 2850 nM and a GI50 (786-0 renal) of 1370 nM. It also gave a TGI (786-0 renal) of 2820 nM, a GI50 (CCRF-CEM leukemia) of 275 nM and a TGI (CCRF-CEM leukemia) of 1670 nM. It also gave a GI50 (HOP-92 NSCLC) of 864 nM, a TGI (HOP-92 NSCLC) of 2400 nM and a GI50 (SK-MEL-5 melanoma) of 1660 nM. For the same compound, the TGI (SK-MEL-5 melanoma) was 3030 nM, the GI50 (MALME-3M melanoma) was 1590 nM and the TGI (MALME-3M melanoma) was 3020 nM. It also gave a GI50 (SR leukemia) of 232 nM, a TGI (SR leukemia) of 1050 nM and a GI50 (OVCAR-8 ovarian) of 1010 nM. The TGI (OVCAR-8 ovarian) was 2420 nM, the GI50 (EKVX NSCLC) was 1610 nM and the TGI (EKVX NSCLC) was 2970 nM. The GI50 (SW-620 colon) was 401 nM, the TGI (SW-620 colon) was 1610 nM and the GI50 (NCI-H460 lung) was 1180 nM. For the same compound, the TGI (NCI-H460 lung) was 2760 nM, the GI50 (K-562 leukemia) was 543 nM and the TGI (K-562 leukemia) was 4410 nM. For the same compound, the GI50 (SF-268 CNS) was 1490 nM, the TGI (SF-268 CNS) was 3020 nM and the GI50 (SNB-19 CNS) was 1540 nM. For the same compound, the TGI (SNB-19 CNS) was 2870 nM, the GI50 (SNB-75 CNS) was 1080 nM and the TGI (SNB-75 CNS) was 2400 nM. It also gave a GI50 (MDA-MB-231 breast) of 1340 nM, a TGI (MDA-MB-231 breast) of 2870 nM and a GI50 (U251 CNS) of 1480 nM. It also gave a TGI (U251 CNS) of 2810 nM, a GI50 (UACC-62 melanoma) of 1280 nM and a TGI (UACC-62 melanoma) of 2590 nM. The GI50 (IGROV1 ovarian) was 527 nM, the TGI (IGROV1 ovarian) was 1860 nM and the GI50 (TK-10 renal) was 1420 nM. It also gave a TGI (TK-10 renal) of 2720 nM.
